From a melting point compilation (Tetko et al.; mined from patent text by program, amines drawn as free bases though some values may be those of a salt)

In the case of COc1ccnc(N2CCC3(CCCN(Cc4c[nH]c5ccccc45)C3=O)CC2)n1, the melting point is reported as 190 to 191 °C.
Compound CSc1ccc(-c2nc(O)c(C(=O)Nc3ccc(C)cc3)c(SC)n2)cc1 has a melting point of 302 to 305 °C.
For O=C(Nc1ccc2ccc(-c3cccc(Br)c3)nc2n1)c1ccccc1, the melting point was 204 to 206 °C.
NC(=S)N1CCSC1c1ccccc1OCCN1CCN(c2cccc(F)c2)CC1 (configuration not stated) gave a melting point of 136 to 137 °C.
In the case of CCNC(=O)c1c(F)cccc1S(=O)C(C)(C)C (configuration not stated), the melting point is reported as 114 to 116 °C.
Compound CCCC(=O)c1cnc2c(OC)nccc2c1OS(C)(=O)=O has a melting point of 184 to 185 °C.
In the case of Cc1cnc2ccc(NC3=NCCN3)c(Br)c2n1, the melting point is reported as > 260 °C.
For O=C1CCC(N2Cc3cc(CNC(=O)Nc4cc(C(F)(F)F)ccc4Cl)ccc3C2=O)C(=O)N1 (configuration not stated), the melting point was 240 to 242 °C.
For Cc1c(N2CCC(N)C2)c(F)cc2c(=O)c(C(=O)O)cn(C3COC3)c12 (configuration not stated), the melting point was > 230 °C.
O=C1c2c(Cl)cccc2-n2c1nc1ccccc1c2=O showed a melting point of 294 to 296 °C.
Work on BrCc1cc(-c2ccccc2)no1 yielded a melting point of 87 °C.
CC(=O)OCC(=O)Nc1nc(CN2CCC(c3c[nH]c4ccccc34)CC2)cs1 showed a melting point of 140 to 144 °C.
With CN(C)C(=O)C1(NS(=O)(=O)c2ccc3c(Cl)cnc(NC(=N)N)c3c2)CCCC1 the melting point was 264 to 268 °C.
With CN(C)C1(Cc2ccccc2)CCC(c2[nH]c3ccccc3c2CC2CCCCC2)CC1 (configuration not stated) the melting point was 120 to 126 °C.
With CC(C)(O)C#Cc1nccs1 the melting point was 69 to 70 °C.
In the case of CCCC/C=C\CCCCCCCCCC1=CC(=O)C=C(OC)C1=O, the melting point is reported as 39.5 to 41.5 °C.
For Cc1ccc(-n2nc(C(C)(C)C)cc2NC(=O)Nc2ccc(OCCCc3ccncc3)c3ccccc23)cc1, the melting point was 205 to 207 °C.
With COCC(COC)Nc1c(C)nn2c(-c3ccc(Cl)cc3Cl)cccc12 the melting point was 86.9 to 90 °C.
Compound Clc1ccc(C=Cc2nc(CNc3ccc(CCCCn4ccnn4)cc3)co2)cc1Cl has a melting point of 76.8 to 78.8 °C.
With CCCCN1Nn2c(c3ncnc-3c3cccnc32)N1CC(C)C the melting point was 182 to 184 °C.
Compound COC(=O)c1ccc(CBr)c(OCC(=O)c2ccc(OC)c(C34CC5CC(CC(C5)C3)C4)c2)c1 has a melting point of 165 °C.
Compound S=C=Nc1ccccc1N1CCCCC1 has a melting point of 143 to 145 °C.
Work on Cc1cn2c(C)nc3c(C)nn(C)c3c2n1 yielded a melting point of 198 to 200 °C.
With Nc1ncnc2c1c(-c1ccc(Oc3ccccc3)cc1)cn2[C@H]1CC[C@@H](N2CCCCC2)CC1 the melting point was 192 to 195 °C.
Compound CCNc1nc(SC)ncc1CNc1c(F)c(OC)cc(OC)c1F has a melting point of 95 to 99 °C.
Compound CNS(=O)(=O)c1ccc(N2CCC(C(=O)OC)=Cc3cc(Br)ccc32)cc1 has a melting point of 201 to 204 °C.
In the case of CC(O)c1ccc(-c2ccc(Cl)c(Cl)c2)o1 (configuration not stated), the melting point is reported as 82.5 to 83.5 °C.
CC(C)c1cccc(C(C)C)c1NC(=O)CSCC(=O)O gave a melting point of 168 to 169 °C.
With O=C(O)c1ccc(CNCc2cc(Br)ccc2OCc2ccccc2)cc1 the melting point was 209 °C.
COc1cc2c(cc1O)C1Cc3c(Cl)cc(OC)c(OCC(=O)O)c3CN1CC2 (configuration not stated) gave a melting point of 172 to 174 °C.
In the case of CCc1nc(Cl)c(Oc2cc(OC)ccc2Cl)c(Cl)n1, the melting point is reported as 113 to 114 °C.
Work on COC(=O)c1ccc(NC(=O)c2cc(C(C)C)c(C(C)C)o2)s1 yielded a melting point of 175 to 177 °C.
COc1ccc(CC(=O)NC(NC(Cc2ccccc2C)=NC#N)C(C)(C)C)cc1 (configuration not stated) gave a melting point of 199 to 201 °C.
Compound CCc1nnc(-c2ccc(N(C)C)c(C)c2)n1-c1ccc(OC)cc1 has a melting point of 131 °C.
Compound COc1ccccc1N1CCN(C(=O)CCCCN2CC=C(c3c[nH]c4cc(F)ccc34)CC2)CC1 has a melting point of 78 to 81 °C.
With Cc1cnc(CN2CCNC2=C[N+](=O)[O-])cn1 the melting point was 163 to 166 °C.
For OC(CNCCCOCCCCCCc1ccccc1)c1ccc2c(n1)COC(c1ccccc1)O2 (configuration not stated), the melting point was 64 to 68 °C.
In the case of C=CCc1c(F)ccc2c3c([nH]c12)C(CC)(CC(=O)O)OCC3 (configuration not stated), the melting point is reported as 123 to 125 °C.
For O=C(O)c1ccc2ccc(-c3ccccc3)cc2c1, the melting point was 244 to 245 °C.
With CC(C)Sc1nc(-c2ccc(Cl)cc2)c(CCC(=O)O)o1 the melting point was 132 to 133 °C.
CC(C)(C)OC(=O)CC(=O)CO[C@H]1NC(=O)[C@@H]1NC(=O)c1ccccc1 gave a melting point of 142 °C.
Cc1cccc(C(=O)N2CC2C#N)n1 (configuration not stated) gave a melting point of 120 to 122 °C.
CCSCC(=O)N1CCSC1COc1ccc(OC)cc1 (configuration not stated) showed a melting point of 98 to 110 °C.
O=C(O)c1cccc(CN2CCC(c3cn(Cc4ccco4)c4ccccc34)CC2)c1 gave a melting point of 154 to 155 °C.
Work on CC12CCC(C(=O)O)=CC1=CCC1C2CCC2(C)C(C(=O)Cc3ccccc3)CCC12 (configuration not stated) yielded a melting point of 258 °C.
For Cc1nn(C)c(Cl)c1C(=O)Nc1ccccc1, the melting point was 157 to 159 °C.
CCOc1ccc(C(=O)N2c3ccccc3C(N3CCCc4ccccc43)CC2C)cc1OCC (configuration not stated) showed a melting point of 157 to 158 °C.
Compound CCSc1cc2c(c(C(=O)O)c1)OCCO2 has a melting point of 153 to 154 °C.
In the case of CN1C(=O)N(c2cc(Cl)nc(Cl)c2)C(=O)[C@]12CNC[C@H]2c1ccc(C#N)cc1 (relative stereo), the melting point is reported as 202 °C.
For Cc1ccc(C)c(OCCCC(C)(C)C(=O)Nc2ccc(F)cc2F)c1, the melting point was 79 to 80 °C.
Fc1ccc(N2CCN(CCCc3[nH]nc4c3CCCC4)CC2)cc1 gave a melting point of 106 to 108 °C.
For O=C(O)C1=Cc2cc(C3CCCCC3)ccc2CC1, the melting point was 179 to 180 °C.
Compound COC(=O)Nc1cccc(CC(C)N)c1 (configuration not stated) has a melting point of 93 to 95 °C.
Compound CS(=O)(=O)Nc1cccc(Nc2nc(NC3CCC3)c3nc[nH]c3n2)c1 has a melting point of 142 to 146 °C.
Work on COc1ccc2c(c1)CCN(C(=O)OCc1ccccc1)C21CCC(C(=O)O)(C(=O)O)CC1 yielded a melting point of 193 to 194 °C.
For C=C[C@H]1CC(C(=O)O)=C[C@@H](OC(C)C)[C@@H]1NC(C)=O, the melting point was 206 to 207 °C.
Compound O=C(N[C@H](CO)c1ccccc1)c1[nH]c2ccc(Cl)cc2c1S(=O)(=O)c1ccccc1 has a melting point of 155 to 160 °C.
For Cn1cc(C(=O)O)c(=O)c2c3cc(N4CCCC(C)(C)C4)c(F)cc3ncc21, the melting point was 292 to 295 °C.
Compound CC(C)(C)c1ccc(-c2cc(=O)cc(N3CCOCC3)o2)cc1 has a melting point of 156 °C.
CCOC(=O)CSC(=S)N1Cc2[nH]c3ccccc3c2CC1C(=O)O (configuration not stated) gave a melting point of 190 to 192 °C.
CCCN1c2ncccc2C(=O)N(C)c2ccc(-c3cn[nH]c3)nc21 showed a melting point of 206 to 207 °C.
OC[C@@H](O)[C@@H](O)[C@H](O)[C@H](O)CCl gave a melting point of 125 to 127 °C.
CCOCc1nc2c(N)nc3cccnc3c2n1CCCCN(OC)C(C)=O showed a melting point of 180 to 181 °C.
In the case of CCOC(=O)c1sc(Cl)nc1C(Cl)(Cl)Cl, the melting point is reported as 42.5 to 43.5 °C.
Work on CCC(Cc1ccc(S(=O)(=O)c2ccc(S(N)(=O)=O)s2)cc1)N(C)C (configuration not stated) yielded a melting point of 169 to 172 °C.
CCOC(=O)c1cn(C2CC2)c2cc(C3CCN(C(C)=O)CC3)c(F)cc2c1=O gave a melting point of 195 to 201 °C.
For COC(=O)c1cc(CO)cc([N+](=O)[O-])c1, the melting point was 76.5 to 77.5 °C.
O=C(O)C1=Cc2cc(Cl)cc(C=NO)c2OC1C(F)(F)F (configuration not stated) gave a melting point of 247 to 248 °C.
Work on O=C(NCCCn1cncn1)Nc1cccc(C(F)(F)F)c1 yielded a melting point of 97 to 99 °C.
With COc1cc(Br)cc(C23CC4CC(CC(C4)C2)C3)c1O the melting point was 157 to 159 °C.
For CC1(C)CCCC(N2CCN(C3CCC(C(C)(C)C)CC3)CC2)C1 (configuration not stated), the melting point was 90 to 92 °C.
With Cc1cc(C)c(C(CO)c2ccc(C(C)C)cc2)c(O)c1 (configuration not stated) the melting point was 101 to 102 °C.
CC(=O)N1CCN(c2c([N+](=O)[O-])cc([N+](=O)[O-])cc2C(F)(F)F)CC1 showed a melting point of 126 °C.
For Clc1cccc(-c2n[nH]cc2-c2ccnc(NCc3ccccc3)c2)c1, the melting point was 179 to 180 °C.
Cc1ccc(C(C)C)c(-n2cc(-c3ccccc3)c(C)c2Cl)c1 gave a melting point of 103 °C.
In the case of C=CCc1c(O)ccc2c1ccc(=O)n2CC=C, the melting point is reported as 205 to 206 °C.
Compound COc1ccc(-c2cn(Cc3ccccc3)c(=O)c3ccccc23)cc1OC has a melting point of 174 to 176 °C.
Compound Cc1ccc(C2c3c(C)c(-n4cc5cc6c(cc5c4)OCO6)c(C)c(C)c3OC2(C)C)cc1 (configuration not stated) has a melting point of 236 to 242 °C.
For Cc1c(CN2CCN(c3cccc(C(F)(F)F)c3)CC2)cc(-c2ccc(Cl)cc2)n1-c1ccc(Cl)cc1, the melting point was 165 to 167 °C.
Work on CCOC(=O)C1=CNc2ccnn2C1 yielded a melting point of 198 to 200 °C.
O=C(Nc1ccc2c(c1)OCO2)O[C@@H]1CN=C(c2ccccc2)O[C@H]1c1ccccc1 (racemic) gave a melting point of 138 °C.
C#CCn1c2ccccc2c2sccc(=O)c21 gave a melting point of 144 °C.
With Fc1cc(Br)cc(OCc2ccc3ccccc3c2)c1 the melting point was 65 to 67 °C.
In the case of Cc1ccccc1[C@@H](CCC(=O)O)Oc1cc(OCc2ccsc2)ccc1[N+](=O)[O-], the melting point is reported as 130 to 131 °C.
Work on ClCc1ccc(C#Cc2ccccc2)cc1 yielded a melting point of 61.5 to 63.5 °C.
For NC(=O)Nc1ccc(-c2c[nH]c(=O)cn2)cc1, the melting point was > 300 °C.
O=C(NCc1ccco1)c1cc2ccnc(Cl)c2[nH]1 showed a melting point of 205 to 209 °C.
In the case of COc1ccc(-c2cc3cc(OC)cc(C(=O)O)c3o2)cc1, the melting point is reported as 218 to 220 °C.
Compound CC(=O)SCC(=Cc1ccc(C(F)(F)F)cc1)C(=O)NCCC(=O)OCc1ccccc1 has a melting point of 79 °C.
CCOC(=O)CCC(=O)OCC(=O)c1ccc(Cl)cc1 gave a melting point of 50 to 51 °C.
CCOC(=O)NC1=NN(c2cccc(Cl)c2)C(=O)C1C (configuration not stated) showed a melting point of 162 °C.
In the case of O=C(c1sc(NC(=O)N2CCOCC2)nc1-c1ccco1)C1CCCC1, the melting point is reported as 108 to 110 °C.
CCOC(=O)N1CCC(NS(=O)(=O)c2ccc3ccccc3c2)CC1 gave a melting point of 128 °C.
Compound CCOc1ccc2[nH]c(=O)n(-c3ccccn3)c2c1 has a melting point of 205 °C.
CC(=O)NCC1CN(c2ccc(-n3cnc(Cn4cccn4)c3)c(F)c2)C(=O)O1 (configuration not stated) gave a melting point of 158 to 160 °C.
For CCOC(=O)COc1ccc2c(C)c(CCN(CC)CC)c(=O)oc2c1Cl, the melting point was 147 to 148 °C.
For CCCC/C(=C\C=C\C(=O)Oc1ccc([N+](=O)[O-])cc1)c1ccc(OC)cc1, the melting point was 78 to 80 °C.
Work on C=C(C)C(=O)NCCC(=O)Nc1cc(Cl)c(C)c(Cl)c1O yielded a melting point of 150 to 152 °C.
O=C(Cl)Sc1nnnn1-c1ccccc1 gave a melting point of 112 to 114 °C.
COc1ccc(S(=O)(=O)N(Cc2ccccc2)C2(C(=O)NO)CCN(Cc3ccccc3)CC2)cc1 showed a melting point of 136 to 142 °C.
COc1cccc(-c2ccc3c(c2)C(C)(C)OC(=O)N3)c1 gave a melting point of 164 to 165 °C.
Cc1ccccc1C1(O)C=C(C(C)(C)C)C(=O)C(C(C)(C)C)=C1 gave a melting point of 168 to 171 °C.
